Data taken from patent US7420056B2, “Substituted bicyclic imidazo-3-ylamine compounds” (Gruenenthal GmbH, priority 2004, dated 2008).
pIC50: −log10 of the molar value. Where a name gives a salt, the structure may show the parent alone.

Target: mGluR5 receptor (Sus scrofa, UniProt I3LUI7)
Assay: Affinity for the mGluR5 receptor: inhibition of 3[H]-MPEP binding in pig brain homogenate
Conditions: 10 μM compound, 5 nM 3[H]-MPEP, read-out: mGluR5 receptor inhibition of ^3[H]-MPEP binding [10 μM] in % at a concentration of the example compounds of 10 μM
Outline: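 Test compounds were screened at 10 μM for displacement of 5 nM [3H]-MPEP from pig brain homogenate (450 μg protein, pH 8.0 Hepes buffer) over 60 min at room temperature. After filtration, scintillation counting gave the read-out. 10 μM unlabelled MPEP set nonspecific binding.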

Sequence of mGluR5 receptor (I3LUI7 19-1212): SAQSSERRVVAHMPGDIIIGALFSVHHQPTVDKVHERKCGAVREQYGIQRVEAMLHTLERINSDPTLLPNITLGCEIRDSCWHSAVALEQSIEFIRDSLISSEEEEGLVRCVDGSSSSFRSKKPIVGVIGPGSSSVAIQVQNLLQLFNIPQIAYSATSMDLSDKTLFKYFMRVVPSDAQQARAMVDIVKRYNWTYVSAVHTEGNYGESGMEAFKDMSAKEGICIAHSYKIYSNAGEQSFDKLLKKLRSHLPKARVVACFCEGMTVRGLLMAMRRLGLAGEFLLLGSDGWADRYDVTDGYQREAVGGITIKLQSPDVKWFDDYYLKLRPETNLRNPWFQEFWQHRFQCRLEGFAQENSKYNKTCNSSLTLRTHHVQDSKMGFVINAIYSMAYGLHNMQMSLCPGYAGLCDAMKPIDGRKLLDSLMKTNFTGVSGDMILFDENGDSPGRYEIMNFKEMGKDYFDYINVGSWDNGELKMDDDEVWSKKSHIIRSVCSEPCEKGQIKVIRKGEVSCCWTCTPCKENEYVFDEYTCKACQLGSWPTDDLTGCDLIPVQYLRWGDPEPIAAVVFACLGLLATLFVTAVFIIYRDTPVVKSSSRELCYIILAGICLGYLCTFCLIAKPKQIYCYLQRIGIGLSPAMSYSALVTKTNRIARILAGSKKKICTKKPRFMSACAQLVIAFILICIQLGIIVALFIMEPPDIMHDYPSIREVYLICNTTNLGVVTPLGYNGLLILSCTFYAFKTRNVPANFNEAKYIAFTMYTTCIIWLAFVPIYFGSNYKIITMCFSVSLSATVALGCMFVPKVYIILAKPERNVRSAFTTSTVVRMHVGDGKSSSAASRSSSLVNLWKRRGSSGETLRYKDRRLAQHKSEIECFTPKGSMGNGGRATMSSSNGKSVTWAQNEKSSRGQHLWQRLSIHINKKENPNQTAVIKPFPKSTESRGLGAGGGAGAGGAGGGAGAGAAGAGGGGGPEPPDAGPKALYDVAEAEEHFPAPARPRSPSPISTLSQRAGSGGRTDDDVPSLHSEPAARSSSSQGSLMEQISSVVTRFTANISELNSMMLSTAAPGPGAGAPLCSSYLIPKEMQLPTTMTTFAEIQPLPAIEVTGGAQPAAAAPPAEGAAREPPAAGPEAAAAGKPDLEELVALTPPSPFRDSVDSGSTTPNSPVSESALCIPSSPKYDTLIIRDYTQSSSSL

How did the inhibition at 10 µM turn out when `Cc1ccn2c(Nc3ccc(F)cc3)c(-c3ccc(C#Cc4ccccn4)o3)nc2c1` [Example 279, N-(4-fluorophenyl)-7-methyl-2-(5-(pyridin-2-ylethynyl)furan-2-yl)imidazo[1,2-a]pyridin-3-amine] was run?
The inhibition at 10 µM was 67%.

`Cc1cc(Br)c2nc(-c3ccc(C#Cc4ccccn4)o3)c(NC3CCCCC3)n2c1` [Example 215, 8-bromo-N-cyclohexyl-6-methyl-2-(5-(pyridin-2-ylethynyl)furan-2-yl)imidazo[1,2-a]pyridin-3-amine] was tested. Which inhibition at 10 µM did it give?
The inhibition at 10 µM was 51%.

For `COc1cccc(Nc2c(-c3ccc(C#Cc4ccccc4)s3)nc3cnccn23)c1` [Example 43, (3-methoxy-phenyl)-[2-(5-phenylethynyl-thiophen-2-yl)-imidazo[1,2-a]pyrazin-3-yl]-amine], which inhibition at 10 µM is on record?
Its inhibition at 10 µM is 83%.

Which inhibition at 10 µM does the source give for `C(#Cc1ccc(-c2nc3cnccn3c2NC2CCCC2)o1)c1ccccn1` [Example 245, N-cyclopentyl-2-(5-(pyridin-2-ylethynyl)furan-2-yl)imidazo[1,2-a]pyrazin-3-amine] here?
The inhibition at 10 µM was 92%.

How did the inhibition at 10 µM turn out when `CCc1ccn2c(NC3CCCC3)c(-c3ccc(C#Cc4ccccn4)cc3)nc2c1` [Example 301, N-cyclopentyl-7-ethyl-2-(4-(pyridin-2-ylethynyl)phenyl)imidazo[1,2-a]pyridin-3-amine] was run?
Its inhibition at 10 µM is 78%.

`CCc1ccn2c(NCc3cccc(C(F)(F)F)c3)c(-c3ccc(C#Cc4ccccc4)s3)nc2c1` [Example 53, [7-ethyl-2-(5-phenylethynyl-thiophen-2-yl)-imidazo[1,2-a]pyridin-3-yl]-(3-trifluoromethyl-benzyl)-amine] was tested. Which inhibition at 10 µM did it give?
The inhibition at 10 µM was 80%.

`CC(C)(C)CC(C)(C)Nc1c(-c2ccc(C#Cc3ccccn3)s2)nc2ncccn12` [Example 253, 2-(5-(pyridin-2-ylethynyl)thiophen-2-yl)-N-(2,4,4-trimethylpentan-2-yl)imidazo[1,2-a]pyrimidin-3-amine] was tested. Which inhibition at 10 µM did it give?
Its inhibition at 10 µM is 73%.

For `COc1cccc(CNc2c(-c3ccc(C#Cc4ccccc4)s3)nc3cccc(C)n23)c1` [Example 21, (3-methoxy-benzyl)-[5-methyl-2-(5-phenylethynyl-thiophen-2-yl)-imidazo[1,2-a]pyridin-3-yl]-amine], which inhibition at 10 µM is on record?
Its inhibition at 10 µM is 91%.

With `Cc1ccc2nc(-c3ccc(C#Cc4ccccn4)s3)c(NC3CCCC3)n2c1` [Example 267, N-cyclopentyl-6-methyl-2-(5-(pyridin-2-ylethynyl)thiophen-2-yl)imidazo[1,2-a]pyridin-3-amine] as the molecule, how does the inhibition at 10 µM read?
Its inhibition at 10 µM is 85%.

For `C(#Cc1csc(-c2nc3cnccn3c2NCC2CCCCC2)c1)c1ccccc1` [Example 206, N-(cyclohexylmethyl)-2-(4-(phenylethynyl)thiophen-2-yl)imidazo[1,2-a]pyrazin-3-amine], which inhibition at 10 µM is on record?
Its inhibition at 10 µM is 63%.

`COc1cccc(Nc2c(-c3ccc(C#Cc4ccccc4)s3)nc3cc(C)cc(C)n23)c1` [Example 42, [5,7-dimethyl-2-(5-phenylethynyl-thiophen-2-yl)-imidazo[1,2-a]pyridin-3-yl]-(3-methoxy-phenyl)-amine] was tested. Which inhibition at 10 µM did it give?
Its inhibition at 10 µM is 93%.

Which inhibition at 10 µM does the source give for `Cc1ccc2nc(-c3ccc(C#Cc4ccccc4)nc3C)c(NC(C)(C)CC(C)(C)C)n2c1` [Example 271, 6-methyl-2-(2-methyl-6-(phenylethynyl)pyridin-3-yl)-N-(2,4,4-trimethylpentan-2-yl)imidazo[1,2-a]pyridin-3-amine] here?
The inhibition at 10 µM was 31%.

How did the inhibition at 10 µM turn out when `Cc1cc(C)n2c(NCC3CCCCC3)c(-c3ccc(C#Cc4ccccc4)s3)nc2c1` [Example 6, cyclohexylmethyl-[5,7-dimethyl-2-(5-phenylethynyl-thiophen-2-yl)-imidazo[1,2-a]pyridin-3-yl]-amine] was run?
The inhibition at 10 µM was 92%.

With `Cc1ccn2c(NC(C)c3ccccc3)c(-c3ccc(C#Cc4ccccc4)s3)nc2n1` (stereo not drawn) [Example 36, [7-methyl-2-(5-phenylethynyl-thiophen-2-yl)-imidazo[1,2-a]pyrimidin-3-yl]-(1-phenyl-ethyl)-amine] as the molecule, how does the inhibition at 10 µM read?
Its inhibition at 10 µM is 100%.

`COc1cccc(CNc2c(-c3ccc(C#Cc4ccccc4)s3)nc3cnccn23)c1` [Example 26, (3-methoxy-benzyl)-[2-(5-phenylethynyl-thiophen-2-yl)-imidazo[1,2-a]pyrazin-3-yl]-amine] was tested. Which inhibition at 10 µM did it give?
Its inhibition at 10 µM is 97%.

For `CC(C)(C)CC(C)(C)Nc1c(-c2ccc(C#Cc3ccccn3)o2)nc2ccc(Cl)cn12` [Example 318, 6-chloro-2-(5-(pyridin-2-ylethynyl)furan-2-yl)-N-(2,4,4-trimethylpentan-2-yl)imidazo[1,2-a]pyridin-3-amine], which inhibition at 10 µM is on record?
Its inhibition at 10 µM is 43%.

For `Cc1cc(Br)c2nc(-c3ccc(C#Cc4ccccn4)o3)c(NC3CCCC3)n2c1` [Example 246, 8-bromo-N-cyclopentyl-6-methyl-2-(5-(pyridin-2-ylethynyl)furan-2-yl)imidazo[1,2-a]pyridin-3-amine], which inhibition at 10 µM is on record?
The inhibition at 10 µM was 74%.

For `CCc1ccn2c(NC3CCCCC3)c(-c3ccc(C#Cc4ccccn4)s3)nc2c1` [Example 298, N-cyclohexyl-7-ethyl-2-(5-(pyridin-2-ylethynyl)thiophen-2-yl)imidazo[1,2-a]pyridin-3-amine], which inhibition at 10 µM is on record?
The inhibition at 10 µM was 95%.

With `Cc1cc(Br)c2nc(-c3cccc(C#Cc4cccc(C)n4)c3)c(NC(C)(C)CC(C)(C)C)n2c1` [Example 210, 8-bromo-6-methyl-2-(3-((6-methylpyridin-2-yl)ethynyl)phenyl)-N-(2,4,4-trimethylpentan-2-yl)imidazo[1,2-a]pyridin-3-amine] as the molecule, how does the inhibition at 10 µM read?
Its inhibition at 10 µM is 68%.

How did the inhibition at 10 µM turn out when `CCCc1cccc2nc(-c3cc(C#Cc4ccccc4)cs3)c(NCCc3cccc(OC)c3)n12` [Example 233, N-(3-methoxyphenethyl)-2-(4-(phenylethynyl)thiophen-2-yl)-5-propylimidazo[1,2-a]pyridin-3-amine] was run?
Its inhibition at 10 µM is 75%.

How did the inhibition at 10 µM turn out when `Cc1cc(Br)c2nc(-c3cccc(C#Cc4ccccn4)c3)c(NC(C)(C)C)n2c1` [Example 96, 8-bromo-N-tert-butyl-6-methyl-2-(3-(pyridin-2-ylethynyl)phenyl)imidazo[1,2-a]pyridin-3-amine] was run?
Its inhibition at 10 µM is 79%.

How did the inhibition at 10 µM turn out when `CC(C)(C)CC(C)(C)Nc1c(-c2ccc(C#Cc3ccccc3)nc2)nc2ncccn12` [Example 256, 2-(6-(phenylethynyl)pyridin-3-yl)-N-(2,4,4-trimethylpentan-2-yl)imidazo[1,2-a]pyrimidin-3-amine] was run?
Its inhibition at 10 µM is 43%.

With `CC(C)(C)c1ccn2c(Nc3ccc(F)c(Cl)c3)c(-c3ccc(C#Cc4ccccc4)s3)nc2c1` [Example 46, [7-tert-butyl-2-(5-phenylethynyl-thiophen-2-yl)-imidazo[1,2-a]pyridin-3-yl]-(3-chloro-4-fluoro-phenyl)-amine] as the molecule, how does the inhibition at 10 µM read?
The inhibition at 10 µM was 76%.

`COc1cccc(CNc2c(-c3ccc(C#Cc4ccccc4)s3)nc3nc(C)ccn23)c1` [Example 47, (3-methoxy-benzyl)-[7-methyl-2-(5-phenylethynyl-thiophen-2-yl)-imidazo[1,2-a]pyrimidin-3-yl]-amine] was tested. Which inhibition at 10 µM did it give?
Its inhibition at 10 µM is 79%.

Which inhibition at 10 µM does the source give for `Cc1cc(Br)c2nc(-c3ccc(C#Cc4ccccn4)cc3)c(NC3CCCC3)n2c1` [Example 250, 8-bromo-N-cyclopentyl-6-methyl-2-(4-(pyridin-2-ylethynyl)phenyl)imidazo[1,2-a]pyridin-3-amine] here?
The inhibition at 10 µM was 69%.

How did the inhibition at 10 µM turn out when `Clc1ccc(CNc2c(-c3ccc(C#Cc4ccccc4)s3)nc3ccccn23)cc1` [Example 204, N-(4-chlorobenzyl)-2-(5-(phenylethynyl)thiophen-2-yl)imidazo[1,2-a]pyridin-3-amine] was run?
The inhibition at 10 µM was 30%.

Same assay, conditions: 3[H]-MPEP binding

With `CNc1c(-c2ccc(C#Cc3ccccc3)s2)nc2cnccn12` [Example 66, methyl-[2-(5-phenylethynyl-thiophen-2-yl)-imidazo[1,2-a]pyrazin-3-yl]-amine] as the molecule, how does the pIC50 read?
The pIC50 was 5.50.

How did the pIC50 turn out when `CC(C)(C)Nc1c(-c2ccc(C#Cc3ccc(N)cc3)s2)nc2cnccn12` [Example 108, 2-(5-((4-aminophenyl)ethynyl)thiophen-2-yl)-N-tert-butylimidazo[1,2-a]pyrazin-3-amine] was run?
Its pIC50 is 5.91.

With `CC(C)(C)Nc1c(-c2ccc(C#Cc3c[nH]cn3)s2)nc2cnccn12` [Example 185, 2-(5-((1H-imidazol-4-yl)ethynyl)thiophen-2-yl)-N-tert-butylimidazo[1,2-a]pyrazin-3-amine hydrochloride] as the molecule, how does the pIC50 read?
The pIC50 was 6.72.

With `CSc1cccc(C#Cc2ccc(-c3nc4cnccn4c3NC(C)(C)C)s2)c1` [Example 173, N-tert-butyl-2-(5-((3-(methylthio)phenyl)ethynyl)thiophen-2-yl)imidazo[1,2-a]pyrazin-3-amine] as the molecule, how does the pIC50 read?
The pIC50 was 6.10.

`CC(Nc1c(-c2ccc(C#Cc3ccccc3)s2)nc2cnccn12)c1ccccc1` (stereo not drawn) [Example 31, (1-phenyl-ethyl)-[2-(5-phenylethynyl-thiophen-2-yl)-imidazo[1,2-a]pyrazin-3-yl]-amine] was tested. Which pIC50 did it give?
Its pIC50 is 6.28.

`CC(C)(C)CC(C)(C)Nc1c(-c2ccc(C#Cc3ccncc3)s2)nc2cnccn12` [Example 61, [2-(5-pyridin-4-ylethynyl-thiophen-2-yl)-imidazo[1,2-a]pyrazin-3-yl]-(1,1,3,3-tetramethyl-butyl)-amine] was tested. Which pIC50 did it give?
The pIC50 was 7.37.

`CCN(CC)c1c(-c2ccc(C#Cc3ccccc3)s2)nc2cnccn12` [Example 93, N,N-diethyl-2-(5-(phenylethynyl)thiophen-2-yl)imidazo[1,2-a]pyrazin-3-amine] was tested. Which pIC50 did it give?
Its pIC50 is 6.60.

How did the pIC50 turn out when `CC(C)(C)Nc1c(-c2cnc(C#Cc3ccccn3)s2)nc2cnccn12` [Example 181, N-tert-butyl-2-(2-(pyridin-2-ylethynyl)thiazol-5-yl)imidazo[1,2-a]pyrazin-3-amine] was run?
Its pIC50 is 7.74.

With `COC(=O)c1nccn2c(NC(C)(C)CC(C)(C)C)c(-c3ccc(C#Cc4ccccc4)s3)nc12` [Example 84, methyl-2-(5-(phenylethynyl)thiophen-2-yl)-3-(2,4,4-trimethylpentan-2-ylamino)imidazo[1,2-a]pyrazine-8-carboxylate] as the molecule, how does the pIC50 read?
The pIC50 was 5.88.

`C(#Cc1ccc(-c2nc3cnccn3c2N2CCCCC2)s1)c1ccccc1` [Example 88, 2-(5-(phenylethynyl)thiophen-2-yl)-3-(piperidin-1-yl)imidazo[1,2-a]pyrazine] was tested. Which pIC50 did it give?
The pIC50 was 5.85.
